Experimental data as given in ChEMBL document CHEMBL3885881, “DrugMatrix”.

Species: Rattus norvegicus
Test: DrugMatrix - Regimen: Daily Repeat
Type: toxicity, organism-based, Sprague-Dawley
Set-up: regimen Daily Repeat, gender Male, age 6-8 weeks
Settings: in vivo, po, 2500 mg/kg, route oral GAVAGE, dose level High, vehicle 100 % WATER; for ABSOLUTE BASOPHIL / ABSOLUTE EOSINOPHIL / ABSOLUTE LYMPHOCYTE / ABSOLUTE MONOCYTE / ABSOLUTE SEGMENTED NEUTROPHIL / BASOPHIL / EOSINOPHIL / ERYTHROCYTE COUNT / HEMATOCRIT / HEMOGLOBIN / LEUKOCYTE COUNT / LYMPHOCYTE / MEAN CORPUSCULAR HEMOGLOBIN / MEAN CORPUSCULAR HEMOGLOBIN CONCENTRATION / MEAN CORPUSCULAR VOLUME / MONOCYTE / NEUTROPHIL / NUCLEATED RED BLOOD CELLS / PLATELET COUNT: tissue Blood; for ALANINE AMINOTRANSFERASE / ALBUMIN / ALKALINE PHOSPHATASE / ASPARTATE AMINOTRANSFERASE / BLOOD UREA NITROGEN / CARBON DIOXIDE / CHLORIDE / CHOLESTEROL / CREATINE PHOSPHOKINASE / CREATININE / GLUCOSE / LACTATE DEHYDROGENASE / LIPASE / PHOSPHORUS / POTASSIUM / SODIUM / TOTAL BILIRUBIN / TOTAL PROTEIN / URIC ACID: tissue Plasma

SMILES: CCN(CC)CCOC(=O)c1ccc(N)cc1 [PROCAINE]
- ABSOLUTE BASOPHIL (72 h, time 3 day): 0 CELLS/uL
- ABSOLUTE EOSINOPHIL (72 h, time 3 day): 0 CELLS/uL
- ABSOLUTE LYMPHOCYTE (72 h, time 3 day): 12849.67 CELLS/uL
- ABSOLUTE MONOCYTE (72 h, time 3 day): 127.33 CELLS/uL
- ABSOLUTE SEGMENTED NEUTROPHIL (72 h, time 3 day): 789.67 CELLS/uL
- BASOPHIL (72 h, time 3 day): 0%
- EOSINOPHIL (72 h, time 3 day): 0%
- ERYTHROCYTE COUNT (72 h, time 3 day): 5.53 x10E6/uL
- HEMATOCRIT (72 h, time 3 day): 34.97%
- HEMOGLOBIN (72 h, time 3 day): 13.83 G/DL
- LEUKOCYTE COUNT (72 h, time 3 day): 13.77 x10E3/uL
- LYMPHOCYTE (72 h, time 3 day): 93.33%
- MEAN CORPUSCULAR HEMOGLOBIN (72 h, time 3 day): 24.97 pg
- MEAN CORPUSCULAR HEMOGLOBIN CONCENTRATION (72 h, time 3 day): 39.63 G/DL
- MEAN CORPUSCULAR VOLUME (72 h, time 3 day): 63.1 fL
- MONOCYTE (72 h, time 3 day): 1%
- NEUTROPHIL (72 h, time 3 day): 5.67%
- NUCLEATED RED BLOOD CELLS (72 h, time 3 day): 0 /100WBC
- PLATELET COUNT (72 h, time 3 day): 1276.67 x10E3/uL
- ALANINE AMINOTRANSFERASE (72 h, time 3 day): 52.33 u/L
- ALBUMIN (72 h, time 3 day): 4.3 G/DL
- ALKALINE PHOSPHATASE (72 h, time 3 day): 353.67 u/L
- ASPARTATE AMINOTRANSFERASE (72 h, time 3 day): 121.67 u/L
- BLOOD UREA NITROGEN (72 h, time 3 day): 13.67 mg/dL
- CARBON DIOXIDE (72 h, time 3 day): 25.33 mmol/L
- CHLORIDE (72 h, time 3 day): 103.33 MEQ/L
- CHOLESTEROL (72 h, time 3 day): 42.33 mg/dL
- CREATINE PHOSPHOKINASE (72 h, time 3 day): 550.67 u/L
- CREATININE (72 h, time 3 day): 0.21 mg/dL
- GLUCOSE (72 h, time 3 day): 173 mg/dL
- LACTATE DEHYDROGENASE (72 h, time 3 day): 675.33 u/L
- LIPASE (72 h, time 3 day): 9 u/L
- PHOSPHORUS (72 h, time 3 day): 14.53 mg/dL
- POTASSIUM (72 h, time 3 day): 7.06 MEQ/L
- SODIUM (72 h, time 3 day): 146.03 MEQ/L
- TOTAL BILIRUBIN (72 h, time 3 day): 0.17 mg/dL
- TOTAL PROTEIN (72 h, time 3 day): 5.9 G/DL
- URIC ACID (72 h, time 3 day): 2.57 mg/dL
- ABSOLUTE BASOPHIL (120 h, time 5 day): 0 CELLS/uL
- ABSOLUTE EOSINOPHIL (120 h, time 5 day): 0 CELLS/uL
- ABSOLUTE LYMPHOCYTE (120 h, time 5 day): 14457.33 CELLS/uL
- ABSOLUTE MONOCYTE (120 h, time 5 day): 61 CELLS/uL
- ABSOLUTE SEGMENTED NEUTROPHIL (120 h, time 5 day): 915 CELLS/uL
- BASOPHIL (120 h, time 5 day): 0%
- EOSINOPHIL (120 h, time 5 day): 0%
- ERYTHROCYTE COUNT (120 h, time 5 day): 6.15 x10E6/uL
- HEMATOCRIT (120 h, time 5 day): 37.43%
- HEMOGLOBIN (120 h, time 5 day): 14.7 G/DL
- LEUKOCYTE COUNT (120 h, time 5 day): 15.43 x10E3/uL
- LYMPHOCYTE (120 h, time 5 day): 93.33%
- MEAN CORPUSCULAR HEMOGLOBIN (120 h, time 5 day): 23.93 pg
- MEAN CORPUSCULAR HEMOGLOBIN CONCENTRATION (120 h, time 5 day): 39.3 G/DL
- MEAN CORPUSCULAR VOLUME (120 h, time 5 day): 60.87 fL
- MONOCYTE (120 h, time 5 day): 0.33%
- NEUTROPHIL (120 h, time 5 day): 6.33%
- NUCLEATED RED BLOOD CELLS (120 h, time 5 day): 0 /100WBC
- PLATELET COUNT (120 h, time 5 day): 1379 x10E3/uL
- ALANINE AMINOTRANSFERASE (120 h, time 5 day): 40 u/L
- ALBUMIN (120 h, time 5 day): 4.73 G/DL
- ALKALINE PHOSPHATASE (120 h, time 5 day): 323.33 u/L
- ASPARTATE AMINOTRANSFERASE (120 h, time 5 day): 94 u/L
- BLOOD UREA NITROGEN (120 h, time 5 day): 17 mg/dL
- CARBON DIOXIDE (120 h, time 5 day): 26 mmol/L
- CHLORIDE (120 h, time 5 day): 101.67 MEQ/L
- CHOLESTEROL (120 h, time 5 day): 33.67 mg/dL
- CREATINE PHOSPHOKINASE (120 h, time 5 day): 281 u/L
- CREATININE (120 h, time 5 day): 0.24 mg/dL
- GLUCOSE (120 h, time 5 day): 166.67 mg/dL
- LACTATE DEHYDROGENASE (120 h, time 5 day): 198.33 u/L
- LIPASE (120 h, time 5 day): 9.67 u/L
- PHOSPHORUS (120 h, time 5 day): 12.67 mg/dL
- POTASSIUM (120 h, time 5 day): 7.55 MEQ/L
- SODIUM (120 h, time 5 day): 143.33 MEQ/L
- TOTAL BILIRUBIN (120 h, time 5 day): 0.2 mg/dL
- TOTAL PROTEIN (120 h, time 5 day): 6.67 G/DL
- URIC ACID (120 h, time 5 day): 2 mg/dL
